Measurements published in US20090286831A1, “VR1 Receptor Ligands and u-Opioid Receptor Ligands for the Treatment of Pain” (priority 2006, published 2009).

Assays:
Format in all cases: in vivo, rat
[1] = tested on: rats after spinal nerve ligature; test: Mono-neuropathic pain after spinal nerve ligature (Chung model), electronic von Frey
Procedure: (§1) Sprague Dawley rats (140-160 g body weight) were used for the following animal models. Sprague Dawley rats (140-160 g body weight) from a commercial breeder (Janvier, Genest St. Isle, France) were used. The animals were kept under standard conditions: light-dark rhythm (06:00 to 18:00 h light, 18:00 to 06:00 h dark), room temperature 19-23° C., relative air humidity 45-65%, air exchange 19 times per hour, air movement <0.2 m/s, free choice of tap water and standard feed, Macrolon Type 4 cages with 5 animals per cage. The solutions of the test substances and/or vehicles (10% […], 5% Cremophor EL, 5% glucose) were administered intravenously.
Under pentobarbital narcosis (Narcoren®, […] i.p., Merial GmbH, Hallbergmoos, Germany), the L5, L6 spinal nerves were firmly bound. The left L5 and L6 spinal nerves were exposed by removing a piece of paravertebral muscle and a portion of the left spinal process of the L5 lumbar vertebral body. The L5 and L6 spinal nerves were carefully isolated and bound with a firm ligature (NC silk, black, USP 5/0, metric 1, Braun Melsungen AG, Melsungen, Germany) (Kim and Chung, An experimental model for peripheral neuropathy produced by segmental spinal nerve ligature in the rat, Pain, 50, 1992, 355-363). After haemostasis was determined, the muscle and adjacent tissue were sutured and the wound closed by metal clamps. After a one-week recovery period the animals were placed in cages with a wire base closed to the top by a plastic hood for measurement of the mechanical allodynia. The animals were kept in this cage until their explorative behaviour had decreased.
The threshold for the tactile allodynia was measured by means of an electronic von Frey anaesthesiometer (Somedic AB, Malmö, Sweden). The animals were randomly divided into groups of 10 animals. Each group received an individual dose of test substance or vehicle and the measurements were conducted 0.5 h before application and at various times after intravenous administration. Both the ipsi- and the contra-lateral rear paw were tested. The median of five stimulations gave a measured data point. The data were determined as % maximum possible effect (% MPE) from the pre-tests of the Chung individual animals (=0% MPE) and the test values of an independent sham control group (=100% MPE). The effect of the test substance and the vehicle was calculated for each measurement time (i.e. 0.5, 1 and 3 h after application) as inter-individual % MPE value. […] The corresponding threshold values are given in gram (mean±SEM).

[2] = tested on: rats; test: Tail-flick (hot beam) test in rats
Procedure: as §1
The analgesic efficacy of the test compounds was examined in the hot beam (tail flick) test in rats using the method of D'Amour and Smith (J. Pharm. Exp. Ther. 1941, 72, 74-79). The time from switching on the lamp (8V/50 W) to the sudden flicking away of the tail from the hot beam (pain latency) was measured by means of a semiautomatic apparatus (tail-flick Analgesiemeter Type 50/08/1.bc, Labtec, Dr. Hess, Germany). The lamp intensity was adjusted before conducting the experiments so that the time from switching on the lamp to the sudden flicking away of the tail (pain latency) amounted to 3-5 seconds in untreated animals. The lamp was automatically switched off after 12 seconds to avoid tissue damage to the rat's tail. The pain latency was measured 10, 20, 40 and 60 min after intravenous administration. The analgesic effect was determined as increase in pain latency (% MPE) according to the following formula: […]
In this case, T0 is the latency time before and T1 the latency time after substance application, T2 is the maximum exposure time (12 sec). Results of the analgesia study in the tail-flick test in rats:
The following experiments of Example 2 relate to binding studies and the analgesic efficacy of the compounds with dual mode of action according to the invention. The experiments comprise the determination of the (f)Ki value at the TPRV1 receptor, the Ki value at the μ-opioid receptor and the hypothermia assay in mice. The tail-flick test for the compounds [1], [4], [7] and [10] according to the invention was conducted in a similar manner to the above-described method (cf. Example 1, experiment 1).

[3] = tested on: rats; test: Tail-flick (hot beam) test in rats; remark: listed apart in the source
[4] = AMG-9810 2.15 mg/kg i.v. group, Control (pre-test 0.5 h before application)
[5] = AMG-9810 2.15 mg/kg i.v., 30 min
[6] = AMG-9810 2.15 mg/kg i.v., 60 min
[7] = AMG-9810 2.15 mg/kg i.v., 180 min
[8] = Morphine 1.0 mg/kg i.v. group, Control (pre-test 0.5 h before application)
[9] = Morphine 1.0 mg/kg i.v., 30 min
[10] = Morphine 1.0 mg/kg i.v., 60 min
[11] = Morphine 1.0 mg/kg i.v., 180 min
[12] = Morphine 2.0 mg/kg i.v. group, Control (pre-test 0.5 h before application)
[13] = Morphine 2.0 mg/kg i.v., 30 min
[14] = Morphine 2.0 mg/kg i.v., 60 min
[15] = Morphine 2.0 mg/kg i.v., 180 min

CC(C)(C)c1ccc(/C=C/C(=O)Nc2ccc3c(c2)OCCO3)cc1 [AMG-9810]
pull-away threshold value, contra-lateral rear paw, mean [1, 4]: 57.79 gram
pull-away threshold value, ipsi-lateral rear paw, mean [1, 4]: 23.23 gram
pull-away threshold value, contra-lateral rear paw, mean [1, 5]: 55.91 gram
pull-away threshold value, ipsi-lateral rear paw, mean [1, 5]: 32.27 gram
pull-away threshold value, contra-lateral rear paw, mean [1, 6]: 52.4 gram
pull-away threshold value, ipsi-lateral rear paw, mean [1, 6]: 31.18 gram
pull-away threshold value, contra-lateral rear paw, mean [1, 7]: 57.38 gram
pull-away threshold value, ipsi-lateral rear paw, mean [1, 7]: 26.94 gram
% MPE (increase in pain latency), mean ([2]; AMG-9810 10 mg/kg i.v., 10 min): 26.36 % MPE
% MPE (increase in pain latency), mean ([2]; AMG-9810 10 mg/kg i.v., 20 min): 11.44 % MPE
% MPE (increase in pain latency), mean ([2]; AMG-9810 10 mg/kg i.v., 60 min): −4.06 % MPE
% MPE (increase in pain latency), mean ([3]; AMG-9810 10 mg/kg i.v., 40 min): 4.38 % MPE

CN1CC[C@]23c4c5ccc(O)c4O[C@H]2[C@@H](O)C=C[C@H]3[C@H]1C5 [Morphine, morphine]
pull-away threshold value, contra-lateral rear paw, mean [1, 8]: 56.81 gram
pull-away threshold value, ipsi-lateral rear paw, mean [1, 8]: 23.63 gram
pull-away threshold value, contra-lateral rear paw, mean [1, 9]: 67.87 gram
pull-away threshold value, ipsi-lateral rear paw, mean [1, 9]: 32.13 gram
pull-away threshold value, contra-lateral rear paw, mean [1, 10]: 60.95 gram
pull-away threshold value, ipsi-lateral rear paw, mean [1, 10]: 27.65 gram
pull-away threshold value, contra-lateral rear paw, mean [1, 11]: 54.63 gram
pull-away threshold value, ipsi-lateral rear paw, mean [1, 11]: 30.67 gram
pull-away threshold value, contra-lateral rear paw, mean [1, 12]: 58.39 gram
pull-away threshold value, ipsi-lateral rear paw, mean [1, 12]: 24.37 gram
pull-away threshold value, contra-lateral rear paw, mean [1, 13]: 82.83 gram
pull-away threshold value, ipsi-lateral rear paw, mean [1, 13]: 48.44 gram
pull-away threshold value, contra-lateral rear paw, mean [1, 14]: 74.68 gram
pull-away threshold value, ipsi-lateral rear paw, mean [1, 14]: 44.87 gram
pull-away threshold value, contra-lateral rear paw, mean [1, 15]: 59.93 gram
pull-away threshold value, ipsi-lateral rear paw, mean [1, 15]: 39.19 gram
efficacy (conclusion) ([1]; combination of two threshold doses of the same opioid, pull away increased on ipsi- and contra-lateral paw): additive antinociceptive efficacy
% MPE (increase in pain latency), mean ([2]; Morphine 0.4 mg/kg i.v., 10 min): 26.51 % MPE
% MPE (increase in pain latency), mean ([2]; Morphine 0.4 mg/kg i.v., 60 min): 4.23 % MPE
antinociceptive efficacy (conclusion) ([2]; combination of two threshold doses of the same opioid): additive antinociceptive efficacy
% MPE (increase in pain latency), mean ([3]; Morphine 0.4 mg/kg i.v., 20 min): 23.62 % MPE
% MPE (increase in pain latency), mean ([3]; Morphine 0.4 mg/kg i.v., 40 min): 14.1 % MPE
% MPE (increase in pain latency), mean ([3]; Morphine 0.8 mg/kg i.v., 10 min): 45.31 % MPE
% MPE (increase in pain latency), mean ([3]; Morphine 0.8 mg/kg i.v., 20 min): 45.02 % MPE
% MPE (increase in pain latency), mean ([3]; Morphine 0.8 mg/kg i.v., 40 min): 25.86 % MPE
% MPE (increase in pain latency), mean ([3]; Morphine 0.8 mg/kg i.v., 60 min): 14.62 % MPE
